Measured values from PMC7481357, “N-terminal Myristoylation Enhanced the Antimicrobial Activity of Antimicrobial Peptide PMAP-36PW” (Frontiers in Cellular and Infection Microbiology, 2020).
“Also recorded” adds a separate entry of the source. Each block holds one compound with its values, some of them ahead of it. Residues, ends and D or L forms follow the SMILES beside them. *: point of attachment. Myristoyl = CCCCCCCCCCCCCC(=O)*

Columns and labels:
S. aureus ATCC 25923 [1] = type: cell-based, Staphylococcus aureus
Method: (§1) The MICs of Myr-36PW in vitro were measured through microdilution in accordance with the Clinical and Laboratory Standards Institute (CLSI, [2020]). The bacterial cells were cultured for 12 h at 37°C in the appropriate medium and then diluted to 1 × 10^6 CFU/mL. Equal volumes (100 μL) of bacterial cell suspension and two-fold serially diluted different concentrations peptides (0.0039–256 μg/mL) were added to each well of the sterile 96-well plate. The samples were incubated for 18 h at 37°C. After incubation, the MICs of the peptides were determined by evaluating the growth based on the OD600 of the cultures.

S. aureus ATCC 25923 [2] = assay: Subcutaneous abscess model; type: in vivo, BALB/c mice; conditions: injected 20 μL, 1 μg/μL, once a day for 3 days; for Bacterial CFU in abscess area: n = 5
Method: A subcutaneous abscess model in vivo was established as previously reported (Zhao et al., [2019]). The mouse dorsal region with 3.0 cm diameter was treated with hair pusher. A total of 120 mice were randomly divided into two experimental models, one was challenged with S. aureus ATCC 25923 (2.5 × 10^8 CFU/mL, 60 μL), and the other was challenged with P. aeruginosa GIM 1.551 (3.0 × 10^8 CFU/mL, 60 μL). In the S. aureus ATCC 25923 model, 60 mice were divided into six groups of 10 members. The mice with no infection and treatment was used as a blank control, those directly injected with PBS (20 μL) as the negative control group, those injected with benzylpenicillin potassium (20 μL, 1 μg/μL) as the positive control group, and the remaining three groups as the treatment groups injected with Myr-36PW (20 μL, 1 μg/μL), PMAP-36PW (20 μL, 1 μg/μL), and PMAP-36 (20 μL, 1 μg/μL). The procedure in P. aeruginosa GIM 1.551 model is the same as that in S. aureus ATCC 25923 model, except for the use of ampicillin sodium as a positive control. Treatment once a day for 3 days was initiated when the mice developed prominent pustules on their backs. A day after the treatment, the size of the abscess was observed, and its tissues were excised, homogenized, and serially diluted. Bacteria CFU counts were calculated.
Figure 10 Treatment efficacy of subcutaneous abscess by Myr-36PW in vivo. Mice were injected with S. aureus ATCC 25923 or P. aeruginosa GIM 1.551 to develop a subcutaneous abscess before treatment. (A) Changes in the abscess area of mice after 3 days treatment. (B,C) Quantitative analysis of bacterial CFU in abscess area that received 3 days treatment under various experimental conditions. The number of CFU in each treatment group was normalized by using the CFU of the experimental group divided by the CFU of the PBS group (100%). BP is benzylpenicillin potassium, AS is ampicillin sodium. Data represent the mean ± SD of five individual experiments. *P < 0.05 and **P < 0.01, compared with PBS. ^#P < 0.05 and ^##P < 0.01, compared with PMAP-36PW.

P. aeruginosa GIM 1.551 = type: cell-based, Pseudomonas aeruginosa
Method: as §1

S. aureus ATCC 25923 [3] = assay: Pneumonia (lung infection) model; type: in vivo, BALB/c mice; conditions: intranasal 40 μL, 1 μg/μL, once a day for 3 days; for Pathological scores of the lung sections: n = 5; for Bacterial CFU in lung homogenate: reduced vs PBS group P < 0.01, n = 5
Method: A pneumonia model in vivo was established as previously reported, with minor modification (Cortés et al., [2002]; Aoki et al., [2009]; Shi et al., [2018]). A total of 120 mice were randomly divided into two experimental models, one was intranasal inoculation of S. aureus ATCC 25923 (8.3 × 10^9 CFU/mL, 50 μL), and the other was intranasal inoculation of P. aeruginosa GIM 1.551 (4.5 × 10^10 CFU/mL, 50 μL). In the S. aureus ATCC 25923 model, 60 mice were divided into the following six groups of 10 mice each: no infection and treatment was used as a blank control, those with intranasal administration of PBS (40 μL) as the negative control group, those administered with benzylpenicillin potassium (40 μL, 1 μg/μL) as the positive control group, and the remaining three corresponded to Myr-36PW (40 μL, 1 μg/μL), PMAP-36PW (40 μL, 1 μg/μL), and PMAP-36 groups (40 μL, 1 μg/μL). The procedure for P. aeruginosa GIM 1.551 model is the same as for S. aureus ATCC 25923 model, except for the use of ampicillin sodium as the positive control. After 4 h post-inoculation, treatment was initiated, once a day for 3 days. The mice were sacrificed 24 h after the treatment. Changes in the appearance of lung tissues were observed, and lung tissues were removed aseptically from the mice. Half of the removed lung tissues were gently fixed in buffered formaldehyde solution for histopathological assessment by hematoxylin and eosin (H&E) staining. Pathological changes were scored to provide individual therapeutic status as described previously (Lei et al., [2018]). The remaining lung tissues were added with 1 mL of PBS, homogenized, and serially diluted. Bacterial CFU counts were determined.
Figure 8 Therapeutic effect for pneumonia by Myr-36PW in vivo. Mice were injected with S. aureus ATCC 25923 or P. aeruginosa GIM 1.551 to form pneumonia, and lungs (n = 5) in each group were collected on day 4 after intranasal bacterial inoculation. (A) Morphological changes of lung tissues. (B) Representative histopathological images of processed lung section with hematoxylin and eosin (H&E) staining. Images are presented at a magnification of 20×. a: inflammatory cell infiltration. b: the alveolar wall is thickened. c: alveolar wall congestion or alveolar hemorrhage. (C,D) Pathological scores of the lung sections. Scoring standard: 1 indicated no pathology, 2 indicated local pulmonary congestion and inflammatory cell infiltration, 3 indicated pulmonary congestion and a large number of inflammatory cell infiltration, affecting <20% of the section, 4 indicated pulmonary congestion and a large number of inflammatory cell infiltration, affecting 20–50% of the section, and 5 indicated pulmonary congestion and a large number of inflammatory cell infiltration, affecting >50% of the section. (E,F) Bacterial CFU in lung homogenate. BP is benzylpenicillin potassium, AS is ampicillin sodium. Data represent the mean ± SD of five individual experiments.

S. typhimurium SL 1344 = type: cell-based, Salmonella typhimurium
Method: as §1

MICs of different classes of antibiotics (S. aureus ATCC 25923 [1]; S. aureus ATCC 25923, * indicates resistant (CLSI, 2020)): <0.25 µg/mL
MICs of different classes of antibiotics (P. aeruginosa GIM 1.551; P. aeruginosa GIM 1.551, * indicates resistant (CLSI, 2020)): 64 µg/mL
MICs of different classes of antibiotics (S. typhimurium SL 1344; S. typhimurium SL 1344, * indicates resistant (CLSI, 2020)): 16 µg/mL
SMILES: CC1(C)S[C@@H]2[C@H](NC(=O)Cc3ccccc3)C(=O)N2[C@H]1C(=O)O [Benzylpenicillin potassium]
Abscess area (S. aureus ATCC 25923 [2]): significantly reduced the abscess area and effectively suppressed its growth
Bacterial CFU in abscess area (S. aureus ATCC 25923 [2]): lower than that in PBS group (P < 0.01)
Lung histopathology (H&E) (S. aureus ATCC 25923 [3]): a complete alveolar structure, reduced blood stasis, and large reduction in inflammatory cells
Pathological scores of the lung sections (S. aureus ATCC 25923 [3]): lower scores than PMAP-36PW group (P < 0.05)
Bacterial CFU in lung homogenate (S. aureus ATCC 25923 [3]): reduced; also recorded: lower than that for PMAP-36PW group (P < 0.05)

SMILES: CCCCCCCCCCCCCC(=O)NCC(=O)NCC(=O)N[C@@H](CCCNC(=N)N)C(=O)N[C@@H](Cc1ccccc1)C(=O)N[C@@H](CCCNC(=N)N)C(=O)N[C@@H](CCCNC(=N)N)C(=O)N[C@@H](CC(C)C)C(=O)N[C@@H](CCCNC(=N)N)C(=O)N[C@@H](CCCCN)C(=O)N[C@@H](CCCCN)C(=O)N[C@H](C(=O)N[C@@H](CCCNC(=N)N)C(=O)N[C@@H](CCCCN)C(=O)N[C@@H](CCCNC(=N)N)C(=O)N[C@@H](CC(C)C)C(=O)N[C@@H](CCCCN)C(=O)N[C@@H](CCCCN)C(=O)N[C@H](C(=O)NCC(=O)N[C@@H](CCCCN)C(=O)N[C@H](C(=O)N[C@@H](CC(C)C)C(=O)N[C@@H](CCCCN)C(=O)N[C@@H](Cc1c[nH]c2ccccc12)C(=O)N[C@H](C(=O)N[C@@H](Cc1c[nH]c2ccccc12)C(=O)N[C@@H](Cc1c[nH]c2ccccc12)C(=O)N[C@H](C(=O)N[C@H](C(=O)NCC(=O)N[C@@H](CO)C(=O)N[C@H](C(=O)N1CCC[C@H]1C(=O)N[C@@H](CC(C)C)C(=O)NCC(=O)N[C@@H](CS)C(=O)NCC(=O)O)[C@@H](C)CC)C(C)C)[C@@H](C)CC)[C@@H](C)CC)C(C)C)[C@@H](C)CC)[C@@H](C)O [Myr-36PW] (Myristoyl-GGRFRRLRKKTRKRLKKIGKVLKWIWWIVGSIPLGCG-OH; C-terminus assumed)
MICs (S. aureus ATCC 25923 [1]; ATCC 25923, 18 h): 0.0020 µg/mL
Abscess area (S. aureus ATCC 25923 [2]): significantly reduced the abscess area and effectively suppressed its growth
Bacterial CFU in abscess area (S. aureus ATCC 25923 [2]): lower than that in PBS group (P < 0.01)
MICs (P. aeruginosa GIM 1.551; GIM 1.551, 18 h): 0.25 µg/mL
Lung histopathology (H&E) (S. aureus ATCC 25923 [3]): a complete alveolar structure, reduced blood stasis, and large reduction in inflammatory cells
Pathological scores of the lung sections (S. aureus ATCC 25923 [3]): lower scores than PMAP-36PW group (P < 0.05)
Bacterial CFU in lung homogenate (S. aureus ATCC 25923 [3]): reduced; also recorded: lower than that for PMAP-36PW group (P < 0.05)
MICs (S. typhimurium SL 1344; SL 1344, 18 h): 8 µg/mL
